Results as given in ChEMBL document CHEMBL1201862, “PubChem BioAssay data set” (2004).
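Five concentrations, 48 hours, 96-well plates. At the GI50, growth is halved.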 The source made the active and inactive calls. Cut-off read from the data, not from the text of the source: active = GI50 up to about 1.1 µM and inactive = higher.

Columns and labels:
Assay in all cases: growth of human tumour cells (NCI), 48 h
786-0 = test system: 786-0
CAKI-1 = test system: CAKI-1
CCRF-CEM = test system: CCRF-CEM
DU-145 = test system: DU-145
HCC 2998 = test system: HCC 2998
KM12 = test system: KM12
M14 = test system: M14
NCI-H226 = test system: NCI-H226
OVCAR-4 = test system: OVCAR-4
OVCAR-5 = test system: OVCAR-5
OVCAR-8 = test system: OVCAR-8
SF-295 = test system: SF-295
SF-539 = test system: SF-539
SK-MEL-28 = test system: SK-MEL-28
SK-MEL-2 = test system: SK-MEL-2
SK-MEL-5 = test system: SK-MEL-5
SNB-19 = test system: SNB-19
SW-620 = test system: SW-620
U-251 = test system: U-251
UACC-257 = test system: UACC-257

Measured: GI50

COc1ccc2oc(=O)c(-c3nc4ccccc4o3)cc2c1
inactive: 786-0 > 100 µM | CAKI-1 > 100 µM | CCRF-CEM > 100 µM | DU-145 > 100 µM | HCC 2998 55 µM | KM12 27.4 µM | M14 > 100 µM | NCI-H226 > 100 µM | OVCAR-4 > 100 µM | OVCAR-5 > 100 µM | OVCAR-8 > 100 µM | SF-295 61.7 µM | SF-539 > 100 µM | SK-MEL-28 > 100 µM | SK-MEL-2 > 100 µM | SK-MEL-5 39.1 µM | SNB-19 > 100 µM | SW-620 > 100 µM | U-251 > 100 µM | UACC-257 > 100 µM

CSc1nc(Cl)c(Br)c(Nc2cnc(O)nc2O)n1
inactive: 786-0 13.4 µM | CAKI-1 1.79 µM | CCRF-CEM 17.7 µM | DU-145 15.6 µM | HCC 2998 17.8 µM | KM12 22.8 µM | M14 27.9 µM | NCI-H226 20.1 µM | OVCAR-4 15.6 µM | OVCAR-8 15.6 µM | SF-295 18.9 µM | SF-539 20.1 µM | SK-MEL-28 29.5 µM | SK-MEL-2 17.5 µM | SK-MEL-5 19.6 µM | SNB-19 20.2 µM | SW-620 27.1 µM | U-251 20.2 µM | UACC-257 19.2 µM

N#Cc1c(O)cc(=O)n2c1[nH]c1ccccc12
inactive: 786-0 > 100 µM | CAKI-1 > 100 µM | CCRF-CEM > 100 µM | DU-145 > 100 µM | HCC 2998 > 100 µM | KM12 > 100 µM | M14 > 100 µM | NCI-H226 > 100 µM | OVCAR-4 > 100 µM | OVCAR-5 > 100 µM | OVCAR-8 > 100 µM | SF-295 64 µM | SF-539 > 100 µM | SK-MEL-2 > 100 µM | SK-MEL-5 > 100 µM | SNB-19 > 100 µM | SW-620 > 100 µM | U-251 > 100 µM | UACC-257 > 100 µM

O=c1[nH]c(=O)n(COCCOCc2ccccc2)cc1Nc1ccccc1
inactive: 786-0 60.1 µM | CAKI-1 > 100 µM | CCRF-CEM > 100 µM | DU-145 > 100 µM | HCC 2998 > 100 µM | KM12 > 100 µM | M14 > 100 µM | NCI-H226 > 100 µM | OVCAR-4 > 100 µM | OVCAR-5 > 100 µM | OVCAR-8 > 100 µM | SF-295 > 100 µM | SF-539 > 100 µM | SK-MEL-28 > 100 µM | SK-MEL-2 > 100 µM | SNB-19 > 100 µM | SW-620 > 100 µM | U-251 > 100 µM | UACC-257 > 100 µM

Cc1[nH]c(=O)nc(N/N=C/c2ccc(Cl)cc2)c1C(=O)Nc1ccc(Cl)cc1
inactive: 786-0 19.4 µM | CAKI-1 53.5 µM | CCRF-CEM > 66.7 µM | DU-145 > 100 µM | HCC 2998 > 100 µM | KM12 32.9 µM | M14 8.07 µM | NCI-H226 > 100 µM | OVCAR-4 9.95 µM | OVCAR-5 82.4 µM | OVCAR-8 10.2 µM | SF-295 20.6 µM | SF-539 21.2 µM | SK-MEL-28 27.4 µM | SK-MEL-2 76.6 µM | SK-MEL-5 18 µM | SNB-19 7.41 µM | SW-620 16.6 µM | U-251 14.5 µM | UACC-257 31 µM

Cc1cn(C2CC(OC(c3ccccc3)(c3ccccc3)c3ccccc3)C(COC(c3ccccc3)(c3ccccc3)c3ccccc3)O2)c(=O)[nH]c1=O (configuration not stated)
inactive: 786-0 > 100 µM | CAKI-1 > 100 µM | CCRF-CEM > 100 µM | DU-145 > 100 µM | HCC 2998 > 100 µM | KM12 31.3 µM | M14 > 100 µM | NCI-H226 26.1 µM | OVCAR-4 > 100 µM | OVCAR-5 53.1 µM | OVCAR-8 > 100 µM | SF-295 > 100 µM | SF-539 > 100 µM | SK-MEL-28 36.8 µM | SK-MEL-2 23.7 µM | SK-MEL-5 43.3 µM | SNB-19 11.7 µM | SW-620 90.4 µM | UACC-257 > 100 µM

COc1cc(S(=O)(=O)Nc2ccc(-c3csc(N4C(=O)C(Cl)C4c4cccs4)n3)cc2)ccc1Cl (configuration not stated)
inactive: 786-0 25.8 µM | CAKI-1 > 100 µM | CCRF-CEM 4.1 µM | DU-145 > 100 µM | HCC 2998 50.5 µM | KM12 49.2 µM | M14 > 100 µM | NCI-H226 46 µM | OVCAR-4 21.6 µM | OVCAR-5 > 100 µM | OVCAR-8 70.6 µM | SF-295 > 100 µM | SF-539 32.8 µM | SK-MEL-28 > 100 µM | SK-MEL-2 > 100 µM | SK-MEL-5 93.8 µM | SNB-19 > 100 µM | SW-620 43.4 µM | UACC-257 28.1 µM

CCOC(=O)/C=C(/C(=O)OCC)n1cc(C)c(=O)n(Cc2cnnn2COCCOC(C)=O)c1=O
inactive: 786-0 7.31 µM | CAKI-1 5.26 µM | CCRF-CEM 2.17 µM | DU-145 24.5 µM | HCC 2998 20 µM | KM12 21.3 µM | M14 14.7 µM | NCI-H226 17.8 µM | OVCAR-4 24.7 µM | OVCAR-5 16.4 µM | OVCAR-8 14.7 µM | SF-295 > 100 µM | SF-539 5.22 µM | SK-MEL-28 16.4 µM | SK-MEL-2 28.4 µM | SK-MEL-5 20.7 µM | SNB-19 > 58.5 µM | SW-620 3.81 µM | U-251 20.4 µM | UACC-257 13.5 µM

O=C/C(=C(/Cl)c1ccc(O)cc1)c1ccccc1
inactive: 786-0 27.8 µM | CAKI-1 27.4 µM | CCRF-CEM 15.2 µM | DU-145 62.5 µM | HCC 2998 71.9 µM | KM12 35.6 µM | M14 27.8 µM | NCI-H226 > 100 µM | OVCAR-4 22.2 µM | OVCAR-5 > 100 µM | OVCAR-8 35.9 µM | SF-295 33.3 µM | SF-539 28.6 µM | SK-MEL-28 20.7 µM | SK-MEL-2 32.7 µM | SK-MEL-5 23 µM | SNB-19 41.2 µM | SW-620 27.6 µM | U-251 24 µM | UACC-257 31.2 µM

CCOC(=O)/C=C/[C@H](O)[C@@H](O)/C=C/C(=O)OCC
inactive: 786-0 33.8 µM | CAKI-1 23.1 µM | CCRF-CEM 8.34 µM | DU-145 37.4 µM | HCC 2998 36.1 µM | KM12 18.9 µM | NCI-H226 > 100 µM | OVCAR-4 31.8 µM | OVCAR-5 51.2 µM | OVCAR-8 19.6 µM | SF-295 31.7 µM | SF-539 33.5 µM | SK-MEL-28 18.2 µM | SK-MEL-2 30.8 µM | SK-MEL-5 22.6 µM | SNB-19 22 µM | SW-620 17 µM | U-251 31 µM | UACC-257 45.8 µM

Cn1ccnc1SC(F)(F)c1nc2ccccc2o1
inactive: 786-0 > 100 µM | CAKI-1 > 100 µM | CCRF-CEM > 100 µM | DU-145 > 100 µM | HCC 2998 > 100 µM | KM12 > 100 µM | M14 > 100 µM | NCI-H226 > 100 µM | OVCAR-4 > 100 µM | OVCAR-5 > 100 µM | OVCAR-8 > 100 µM | SF-295 > 100 µM | SF-539 > 100 µM | SK-MEL-28 > 100 µM | SK-MEL-2 > 100 µM | SK-MEL-5 > 100 µM | SW-620 > 100 µM | U-251 > 100 µM | UACC-257 > 100 µM

Cc1nc2c(nc1C)-c1c(c3c(n1Cc1ccccc1)C(=O)CCC3)C(=O)C2=O
inactive: 786-0 3.42 µM | CAKI-1 2.15 µM | CCRF-CEM 3.03 µM | DU-145 5.08 µM | HCC 2998 2.86 µM | KM12 2.09 µM | M14 4.42 µM | NCI-H226 21.4 µM | OVCAR-4 1.81 µM | OVCAR-5 3.74 µM | OVCAR-8 3.09 µM | SF-295 13.7 µM | SF-539 2.33 µM | SK-MEL-28 2.02 µM | SK-MEL-2 5.08 µM | SK-MEL-5 6.34 µM | SNB-19 7.96 µM | SW-620 3.07 µM | U-251 2.9 µM | UACC-257 6.37 µM

Cc1ccc(C(=O)Nc2ccc(CP(=O)(O)O)cc2)cc1NC(=O)c1cccc(NC(=O)Nc2cccc(C(=O)Nc3cc(C(=O)Nc4ccc(CP(=O)(O)O)cc4)ccc3C)c2)c1
inactive: 786-0 > 100 µM | CAKI-1 > 100 µM | CCRF-CEM > 100 µM | DU-145 > 100 µM | HCC 2998 > 100 µM | KM12 > 100 µM | M14 > 100 µM | NCI-H226 > 100 µM | OVCAR-4 > 100 µM | OVCAR-5 > 100 µM | OVCAR-8 > 100 µM | SF-295 > 100 µM | SF-539 > 100 µM | SK-MEL-28 > 100 µM | SK-MEL-2 > 100 µM | SK-MEL-5 > 100 µM | SNB-19 > 100 µM | SW-620 > 100 µM | U-251 > 100 µM | UACC-257 > 100 µM

C=C1C(OC2O[C@@H]3O[C@@]4(C)CC[C@H]5[C@H](C)CC[C@@H](C2=C)[C@@]35O4)O[C@@H]2O[C@@]3(C)CC[C@H]4[C@H](C)CC[C@@H]1[C@@]24O3 (some centres not stated)
inactive: 786-0 > 50 µM | CAKI-1 > 50 µM | CCRF-CEM > 50 µM | DU-145 > 50 µM | HCC 2998 > 50 µM | KM12 > 50 µM | M14 > 50 µM | NCI-H226 > 50 µM | OVCAR-4 > 50 µM | OVCAR-5 > 50 µM | SF-295 > 50 µM | SF-539 > 50 µM | SK-MEL-28 > 50 µM | SK-MEL-2 > 50 µM | SK-MEL-5 > 50 µM | SNB-19 > 50 µM | SW-620 > 50 µM | U-251 > 50 µM | UACC-257 > 50 µM
